Legend:
Rho kinase 1 (ROCK-I) = Rho kinase 1 (ROCK-I) (Homo sapiens, UniProt Q13464); assay: In vitro Rho kinase inhibitory activity assay (ADP-Glo), Rho kinase 1; assay type: biochemical; conditions: 10 μM ATP, 25° C., expressed as range of activity
How it was run: (§1)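 Kinase activity is measured as ADP production (ADP-Glo, luminescence) after 1 hour at 25 °C with 10 μM ATP and 2.5 μM Myelin Basic Protein, following 30 min enzyme–compound preincubation. Buffer is 40 mM Tris pH7.5, 20 mM MgCl2, 0.1 mg/ml BSA, 50 μM DTT.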

Rho kinase 2 (ROCK-II) = Rho kinase 2 (ROCK-II) (Homo sapiens, UniProt O75116); assay: In vitro Rho kinase inhibitory activity assay (ADP-Glo), Rho kinase 2; assay type: biochemical; conditions: 10 μM ATP, 25° C., expressed as range of activity
How it was run: as §1

Sequence of Rho kinase 1 (ROCK-I) (Q13464 whole entry): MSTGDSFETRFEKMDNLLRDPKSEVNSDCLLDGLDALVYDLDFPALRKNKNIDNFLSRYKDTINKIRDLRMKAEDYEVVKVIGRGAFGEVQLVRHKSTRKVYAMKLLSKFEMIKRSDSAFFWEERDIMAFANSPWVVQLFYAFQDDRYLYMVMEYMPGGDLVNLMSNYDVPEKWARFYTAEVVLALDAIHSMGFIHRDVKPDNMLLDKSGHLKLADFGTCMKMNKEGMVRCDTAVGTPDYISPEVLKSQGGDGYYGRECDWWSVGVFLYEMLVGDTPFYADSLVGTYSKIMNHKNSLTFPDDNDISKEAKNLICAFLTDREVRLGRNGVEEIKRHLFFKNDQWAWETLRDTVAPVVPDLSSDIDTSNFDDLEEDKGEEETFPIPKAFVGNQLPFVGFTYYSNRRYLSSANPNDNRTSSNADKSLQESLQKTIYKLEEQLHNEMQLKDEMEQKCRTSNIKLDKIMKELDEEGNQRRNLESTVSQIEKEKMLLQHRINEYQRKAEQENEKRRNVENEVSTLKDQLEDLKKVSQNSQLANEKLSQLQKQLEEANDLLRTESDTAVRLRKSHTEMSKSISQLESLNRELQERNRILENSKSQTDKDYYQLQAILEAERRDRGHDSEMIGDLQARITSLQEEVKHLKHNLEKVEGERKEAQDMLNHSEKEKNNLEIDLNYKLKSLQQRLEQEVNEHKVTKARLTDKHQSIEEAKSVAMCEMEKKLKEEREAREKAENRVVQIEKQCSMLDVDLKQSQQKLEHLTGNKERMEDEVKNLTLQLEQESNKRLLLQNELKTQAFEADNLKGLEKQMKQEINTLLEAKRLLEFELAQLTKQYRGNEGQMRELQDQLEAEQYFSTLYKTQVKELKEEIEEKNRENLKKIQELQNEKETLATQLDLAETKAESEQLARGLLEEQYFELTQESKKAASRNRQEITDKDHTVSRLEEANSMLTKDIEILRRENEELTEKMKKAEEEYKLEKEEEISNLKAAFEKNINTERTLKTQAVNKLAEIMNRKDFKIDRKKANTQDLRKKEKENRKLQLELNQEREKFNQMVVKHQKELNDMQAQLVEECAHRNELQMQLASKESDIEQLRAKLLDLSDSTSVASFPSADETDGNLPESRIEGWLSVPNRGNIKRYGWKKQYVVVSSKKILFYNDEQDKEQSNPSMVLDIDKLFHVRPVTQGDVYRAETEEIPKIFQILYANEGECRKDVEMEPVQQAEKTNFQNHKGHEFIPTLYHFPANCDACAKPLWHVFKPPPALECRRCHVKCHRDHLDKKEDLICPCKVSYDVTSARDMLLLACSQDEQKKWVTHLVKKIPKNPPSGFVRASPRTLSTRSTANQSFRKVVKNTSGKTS
Sequence of Rho kinase 2 (ROCK-II) (O75116 whole entry): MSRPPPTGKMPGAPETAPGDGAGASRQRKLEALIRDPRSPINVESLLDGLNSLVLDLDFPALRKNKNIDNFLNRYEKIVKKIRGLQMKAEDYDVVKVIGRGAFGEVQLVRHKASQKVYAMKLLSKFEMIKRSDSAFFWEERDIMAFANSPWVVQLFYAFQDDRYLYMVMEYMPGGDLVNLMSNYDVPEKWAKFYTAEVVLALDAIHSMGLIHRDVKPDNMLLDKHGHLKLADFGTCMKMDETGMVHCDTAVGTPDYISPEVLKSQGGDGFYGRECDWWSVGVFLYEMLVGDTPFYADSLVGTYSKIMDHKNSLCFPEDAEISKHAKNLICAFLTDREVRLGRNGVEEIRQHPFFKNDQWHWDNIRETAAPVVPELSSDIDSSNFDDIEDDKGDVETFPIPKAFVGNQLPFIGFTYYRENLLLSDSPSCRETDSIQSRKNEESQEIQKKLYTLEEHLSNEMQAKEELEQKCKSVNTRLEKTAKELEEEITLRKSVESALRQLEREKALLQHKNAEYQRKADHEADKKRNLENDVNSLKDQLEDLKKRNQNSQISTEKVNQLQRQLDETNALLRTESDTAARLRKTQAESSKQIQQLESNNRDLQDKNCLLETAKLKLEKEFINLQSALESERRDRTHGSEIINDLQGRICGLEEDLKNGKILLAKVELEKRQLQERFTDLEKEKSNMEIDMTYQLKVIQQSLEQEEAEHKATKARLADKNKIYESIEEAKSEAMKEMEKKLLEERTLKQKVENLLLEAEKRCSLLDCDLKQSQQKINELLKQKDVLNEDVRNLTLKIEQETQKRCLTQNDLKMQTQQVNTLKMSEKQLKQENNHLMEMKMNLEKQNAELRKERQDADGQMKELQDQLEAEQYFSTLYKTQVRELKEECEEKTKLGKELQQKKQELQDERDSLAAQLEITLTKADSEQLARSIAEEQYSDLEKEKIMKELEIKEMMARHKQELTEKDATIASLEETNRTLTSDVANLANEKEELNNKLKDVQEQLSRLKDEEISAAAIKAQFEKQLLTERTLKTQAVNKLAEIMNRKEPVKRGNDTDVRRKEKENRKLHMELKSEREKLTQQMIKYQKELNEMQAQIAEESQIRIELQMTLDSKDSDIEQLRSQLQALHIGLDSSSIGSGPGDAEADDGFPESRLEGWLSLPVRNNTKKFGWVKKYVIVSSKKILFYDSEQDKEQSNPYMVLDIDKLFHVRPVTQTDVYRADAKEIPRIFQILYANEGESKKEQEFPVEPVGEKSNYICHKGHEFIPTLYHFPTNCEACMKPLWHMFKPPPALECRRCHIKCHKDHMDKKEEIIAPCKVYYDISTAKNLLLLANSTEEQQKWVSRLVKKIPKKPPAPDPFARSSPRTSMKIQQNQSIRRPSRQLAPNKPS

Question: How did the Ki (Rho kinase 1 (ROCK-I)) turn out when `CN(C)C(Cc1ccc(Oc2ccnc3[nH]ccc23)cc1)C(=O)NC1CCOCC1` (stereo not drawn) [Example 182, 3-(4-((1H-pyrrolo[2,3-b]pyridin-4-yl)oxy)phenyl)-2-(dimethylamino)-N-(tetrahydro-2H-pyran-4-yl)propanamide] was run?
Answer: > 30 nM

Question: And the Ki (Rho kinase 2 (ROCK-II))?
Answer: > 30 nM

Question: What does the source list for `Cc1noc(C2CCN(C(=O)[C@@H](N)Cc3ccc(Oc4ccnc5[nH]cc(C)c45)c(F)c3)C2)n1` (single isomer, unassigned) [Example 8B]?
Answer: Ki (Rho kinase 1 (ROCK-I)): < 3 nM; Ki (Rho kinase 2 (ROCK-II)): < 3 nM

Question: `Cc1c[nH]c2nccc(Oc3ccc(C[C@H](N)C(=O)N4CCN(C(=O)c5cccnc5)CC4)cc3F)c12` [Example 174, (S)-2-amino-3-(3-fluoro-4-((3-methyl-1H-pyrrolo[2,3-b]pyridin-4-yl)oxy)phenyl)-1-(4-nicotinoylpiperazin-1-yl)propan-1-one] was tested. Which Ki (Rho kinase 1 (ROCK-I)) did it give?
Answer: < 3 nM

Question: What about the Ki (Rho kinase 2 (ROCK-II)) of the same compound?
Answer: < 3 nM

Question: For `N[C@@H](Cc1ccc(Oc2ccnc3[nH]cc(C4CC4)c23)cc1)C(=O)NC1CCCCC1` [Example 203, (S)-2-amino-N-cyclohexyl-3-(4-((3-cyclopropyl-1H-pyrrolo[2,3-b]pyridin-4-yl)oxy)phenyl)propanamide], which Ki (Rho kinase 1 (ROCK-I)) is on record?
Answer: < 3 nM

Question: And the Ki (Rho kinase 2 (ROCK-II))?
Answer: < 3 nM

Question: What does the source list for `N#Cc1c[nH]c2nccc(Oc3ccc(C[C@H](N)C(=O)N4CCN(Cc5ccccc5)CC4)cc3F)c12` [Example 220, (S)-4-(4-(2-amino-3-(4-benzylpiperazin-1-yl)-3-oxopropyl)-2-fluorophenoxy)-1H-pyrrolo[2,3-b]pyridine-3-carbonitrile]?
Answer: Ki (Rho kinase 1 (ROCK-I)): < 3 nM; Ki (Rho kinase 2 (ROCK-II)): < 3 nM

Question: What does the source list for `N[C@@H](Cc1ccc(Oc2ccnc3[nH]ccc23)cc1)C(=O)NCc1ccccc1` [Example 97, (S)-3-(4-((1H-pyrrolo[2,3-b]pyridin-4-yl)oxy)phenyl)-2-amino-N-benzylpropanamide]?
Answer: Ki (Rho kinase 1 (ROCK-I)): 3 to 30 nM; Ki (Rho kinase 2 (ROCK-II)): 3 to 30 nM

Question: With `Cc1c[nH]c2nccc(Oc3ccc(CC(N)C(=O)N4CCCC4c4ccccc4)cc3F)c12` (single isomer, unassigned) [Example 85, 2-amino-3-(3-fluoro-4-((3-methyl-1H-pyrrolo[2,3-b]pyridin-4-yl)oxy)phenyl)-1-(2-phenylpyrrolidin-1-yl)propan-1-one] as the compound, how does the Ki (Rho kinase 1 (ROCK-I)) read?
Answer: 3 to 30 nM

Question: And the Ki (Rho kinase 2 (ROCK-II))?
Answer: 3 to 30 nM

Question: How did the Ki (Rho kinase 1 (ROCK-I)) turn out when `Cc1c[nH]c2nccc(Oc3ccc(C[C@H](N)C(=O)N4CCN(C(=O)C5CCN(C)CC5)CC4)cc3F)c12` [Example 171, (S)-2-amino-3-(3-fluoro-4-((3-methyl-1H-pyrrolo[2,3-b]pyridin-4-yl)oxy)phenyl)-1-(4-(1-methylpiperidine-4-carbonyl)piperazin-1-yl)propan-1-one] was run?
Answer: 3 to 30 nM

Question: And the Ki (Rho kinase 2 (ROCK-II))?
Answer: 3 to 30 nM

Question: What does the source list for `Cc1c[nH]c2nccc(Oc3ccc(C[C@H](N)C(=O)N4CCN(Cc5cnccn5)CC4)cc3F)c12` [Example 155, (S)-2-amino-3-(3-fluoro-4-((3-methyl-1H-pyrrolo[2,3-b]pyridin-4-yl)oxy)phenyl)-1-(4-(pyrazin-2-ylmethyl)piperazin-1-yl)propan-1-one]?
Answer: Ki (Rho kinase 1 (ROCK-I)): < 3 nM; Ki (Rho kinase 2 (ROCK-II)): < 3 nM

Question: Which Ki (Rho kinase 1 (ROCK-I)) does the source give for `Cc1c[nH]c2nccc(Oc3ccc(C[C@H](N)C(=O)N4CCc5ccccc5C4)cc3F)c12` [Example 10, (S)-2-amino-1-(3,4-dihydroisoquinolin-2(1H)-yl)-3-(3-fluoro-4-((3-methyl-1H-pyrrolo[2,3-b]pyridin-4-yl)oxy)phenyl)propan-1-one] here?
Answer: < 3 nM

Question: What about the Ki (Rho kinase 2 (ROCK-II)) of the same compound?
Answer: < 3 nM

Question: With `Cc1c[nH]c2nccc(Oc3ccc(CC(N)C(=O)NCC4CCN(Cc5ccccc5)CC4)cc3F)c12` (stereo not drawn) [Example 82, 2-amino-N-((1-benzylpiperidin-4-yl)methyl)-3-(3-fluoro-4-((3-methyl-1H-pyrrolo[2,3-b]pyridin-4-yl)oxy)phenyl)propanamide] as the compound, how does the Ki (Rho kinase 1 (ROCK-I)) read?
Answer: < 3 nM

Question: What about the Ki (Rho kinase 2 (ROCK-II)) of the same compound?
Answer: < 3 nM

Question: What does the source list for `Cc1c[nH]c2nccc(Oc3ccc(C[C@H](N)C(=O)N4CCN(Cc5cncnc5)CC4)cc3F)c12` [Example 162, (S)-2-amino-3-(3-fluoro-4-((3-methyl-1H-pyrrolo[2,3-b]pyridin-4-yl)oxy)phenyl)-1-(4-(pyrimidin-5-ylmethyl)piperazin-1-yl)propan-1-one]?
Answer: Ki (Rho kinase 1 (ROCK-I)): < 3 nM; Ki (Rho kinase 2 (ROCK-II)): < 3 nM

Question: With `Cc1c[nH]c2nccc(Oc3ccc(C[C@@H](N)C(=O)Nc4ccccc4)cc3F)c12` [Example 149, (R)-2-amino-3-(3-fluoro-4-((3-methyl-1H-pyrrolo[2,3-b]pyridin-4-yl)oxy)phenyl)-N-phenylpropanamide] as the compound, how does the Ki (Rho kinase 1 (ROCK-I)) read?
Answer: < 3 nM

Question: And the Ki (Rho kinase 2 (ROCK-II))?
Answer: < 3 nM

Question: With `NC(Cc1ccc(Oc2ccnc3[nH]ccc23)cc1)C(=O)Nc1ccc(C(F)(F)F)cc1` (stereo not drawn) [Example 91, 3-(4-((1H-pyrrolo[2,3-b]pyridin-4-yl)oxy)phenyl)-2-amino-N-(4-(trifluoromethyl)phenyl)propanamide] as the compound, how does the Ki (Rho kinase 1 (ROCK-I)) read?
Answer: 3 to 30 nM

Question: And the Ki (Rho kinase 2 (ROCK-II))?
Answer: < 3 nM

Question: How did the Ki (Rho kinase 1 (ROCK-I)) turn out when `N[C@H](Cc1ccc(Oc2ccnc3[nH]ccc23)cc1)C(=O)Nc1nccs1` [Example 106, (R)-3-(4-((1H-pyrrolo[2,3-b]pyridin-4-yl)oxy)phenyl)-2-amino-N-(thiazol-2-yl)propanamide] was run?
Answer: > 30 nM

Question: And the Ki (Rho kinase 2 (ROCK-II))?
Answer: > 30 nM

Question: For `Cc1c[nH]c2nccc(Oc3ccc(C[C@H](N)C(=O)N4CCN(CC5CCN(S(C)(=O)=O)CC5)CC4)cc3F)c12` [Example 161, (S)-2-amino-3-(3-fluoro-4-((3-methyl-1H-pyrrolo[2,3-b]pyridin-4-yl)oxy)phenyl)-1-(4-((1-(methylsulfonyl)piperidin-4-yl)methyl)piperazin-1-yl)propan-1-one], which Ki (Rho kinase 1 (ROCK-I)) is on record?
Answer: < 3 nM

Question: And the Ki (Rho kinase 2 (ROCK-II))?
Answer: < 3 nM

Question: What does the source list for `Cc1c[nH]c2nccc(Oc3ccc(CC(N)C(=O)NCCc4ccccn4)cc3F)c12` (stereo not drawn) [Example 69, 2-amino-3-(3-fluoro-4-((3-methyl-1H-pyrrolo[2,3-b]pyridin-4-yl)oxy)phenyl)-N-(2-(pyridin-2-yl)ethyl)propanamide]?
Answer: Ki (Rho kinase 1 (ROCK-I)): < 3 nM; Ki (Rho kinase 2 (ROCK-II)): < 3 nM

Question: Which Ki (Rho kinase 1 (ROCK-I)) does the source give for `N[C@@H](Cc1ccc(Oc2ccnc3[nH]cc(CO)c23)c(F)c1)C(=O)NC1CCOCC1` [Example 209, (S)-2-amino-3-(3-fluoro-4-((3-(hydroxymethyl)-1H-pyrrolo[2,3-b]pyridin-4-yl)oxy)phenyl)-N-(tetrahydro-2H-pyran-4-yl)propanamide] here?
Answer: 3 to 30 nM

Question: What about the Ki (Rho kinase 2 (ROCK-II)) of the same compound?
Answer: < 3 nM

Question: How did the Ki (Rho kinase 1 (ROCK-I)) turn out when `N[C@@H](Cc1ccc(Oc2ccnc3[nH]cc(-c4ccc(O)cc4)c23)cc1)C(=O)NCCc1ccncc1` [Example 206, (S)-2-amino-3-(4-((3-(4-hydroxyphenyl)-1H-pyrrolo[2,3-b]pyridin-4-yl)oxy)phenyl)-N-(2-(pyridin-4-yl)ethyl)propanamide] was run?
Answer: < 3 nM

Question: What about the Ki (Rho kinase 2 (ROCK-II)) of the same compound?
Answer: < 3 nM

Question: Which Ki (Rho kinase 1 (ROCK-I)) does the source give for `CC(N)(Cc1ccc(Oc2ccnc3[nH]ccc23)cc1)C(=O)NC1CCOCC1` (stereo not drawn) [Example 151, 3-(4-((1H-pyrrolo[2,3-b]pyridin-4-yl)oxy)phenyl)-2-amino-2-methyl-N-(tetrahydro-2H-pyran-4-yl)propanamide] here?
Answer: > 30 nM

Question: And the Ki (Rho kinase 2 (ROCK-II))?
Answer: > 30 nM

Question: `N[C@@H](Cc1ccc(Oc2ncnc3[nH]ccc23)cc1)C(=O)NC1CCCCC1` [Example 225, (S)-3-(4-((7H-pyrrolo[2,3-d]pyrimidin-4-yl)oxy)phenyl)-2-amino-N-cyclohexylpropanamide] was tested. Which Ki (Rho kinase 1 (ROCK-I)) did it give?
Answer: > 30 nM

Question: What about the Ki (Rho kinase 2 (ROCK-II)) of the same compound?
Answer: > 30 nM

Question: Which results are given for `Cc1c[nH]c2nccc(Oc3ccc(CC(N)C(=O)NCCc4ccncc4)cc3F)c12` (single isomer, unassigned) [Example 57B, 2-amino-3-(3-fluoro-4-((3-methyl-1H-pyrrolo[2,3-b]pyridin-4-yl)oxy)phenyl)-N-(2-(pyridin-4-yl)ethyl)propanamide]?
Answer: Ki (Rho kinase 1 (ROCK-I)): < 3 nM; Ki (Rho kinase 2 (ROCK-II)): < 3 nM

Question: For `Cc1c[nH]c2nccc(Oc3ccc(CC(N)C(=O)N4CCCCC4)cc3F)c12` (stereo not drawn) [Example 77, 2-amino-3-(3-fluoro-4-((3-methyl-1H-pyrrolo[2,3-b]pyridin-4-yl)oxy)phenyl)-1-(piperidin-1-yl)propan-1-one], which Ki (Rho kinase 1 (ROCK-I)) is on record?
Answer: < 3 nM

Question: What about the Ki (Rho kinase 2 (ROCK-II)) of the same compound?
Answer: < 3 nM

Question: Which Ki (Rho kinase 1 (ROCK-I)) does the source give for `CN(C)C(=O)C(N)Cc1ccc(Oc2ccnc3[nH]ccc23)cc1` (stereo not drawn) [Example 113, 3-(4-((1H-pyrrolo[2,3-b]pyridin-4-yl)oxy)phenyl)-2-amino-N,N-dimethylpropanamide] here?
Answer: > 30 nM

Question: And the Ki (Rho kinase 2 (ROCK-II))?
Answer: 3 to 30 nM

Question: Which results are given for `Cc1c[nH]c2nccc(Oc3ccc(C[C@H](N)C(=O)N4CCN(Cc5nccn5C)CC4)cc3F)c12` [Example 156, (S)-2-amino-3-(3-fluoro-4-((3-methyl-1H-pyrrolo[2,3-b]pyridin-4-yl)oxy)phenyl)-1-(4-((1-methyl-1H-imidazol-2-yl)methyl)piperazin-1-yl)propan-l-one]?
Answer: Ki (Rho kinase 1 (ROCK-I)): < 3 nM; Ki (Rho kinase 2 (ROCK-II)): < 3 nM

Question: `Cc1c[nH]c2nccc(Oc3ccc(C[C@@H](N)C(=O)NCC4CCCCC4)cc3)c12` [Example 140, (R)-2-amino-N-(cyclohexylmethyl)-3-(4-((3-methyl-1H-pyrrolo[2,3-b]pyridin-4-yl)oxy)phenyl)propanamide] was tested. Which Ki (Rho kinase 1 (ROCK-I)) did it give?
Answer: 3 to 30 nM

Question: What about the Ki (Rho kinase 2 (ROCK-II)) of the same compound?
Answer: 3 to 30 nM

Question: `CN1CCC(NC(=O)[C@@H](N)Cc2ccc(Oc3ccnc4[nH]cc(CO)c34)c(F)c2)CC1` [Example 210, (S)-2-amino-3-(3-fluoro-4-((3-(hydroxymethyl)-1H-pyrrolo[2,3-b]pyridin-4-yl)oxy)phenyl)-N-(1-methylpiperidin-4-yl)propanamide] was tested. Which Ki (Rho kinase 1 (ROCK-I)) did it give?
Answer: 3 to 30 nM

Question: What about the Ki (Rho kinase 2 (ROCK-II)) of the same compound?
Answer: 3 to 30 nM

Question: How did the Ki (Rho kinase 1 (ROCK-I)) turn out when `CNC(=O)c1cccc(CN2CCN(C(=O)[C@@H](N)Cc3ccc(Oc4ccnc5[nH]cc(C)c45)c(F)c3)CC2)c1` [Example 165, (S)-3-((4-(2-amino-3-(3-fluoro-4-((3-methyl-1H-pyrrolo[2,3-b]pyridin-4-yl)oxy)phenyl)propanoyl)piperazin-1-yl)methyl)-N-methylbenzamide] was run?
Answer: < 3 nM

Question: And the Ki (Rho kinase 2 (ROCK-II))?
Answer: < 3 nM

Question: With `CN(C)CCNC(=O)[C@H](N)Cc1ccc(Oc2ccnc3[nH]ccc23)cc1` [Example 96, (R)-3-(4-((1H-pyrrolo[2,3-b]pyridin-4-yl)oxy)phenyl)-2-amino-N-(2-(dimethylamino)ethyl)propanamide] as the compound, how does the Ki (Rho kinase 1 (ROCK-I)) read?
Answer: > 30 nM

Question: And the Ki (Rho kinase 2 (ROCK-II))?
Answer: > 30 nM

Question: `N#Cc1c[nH]c2nccc(Oc3ccc(C[C@H](N)C(=O)NC4CCCCC4)cc3F)c12` [Example 221, (S)-2-amino-3-(4-((3-cyano-1H-pyrrolo[2,3-b]pyridin-4-yl)oxy)-3-fluorophenyl)-N-cyclohexylpropanamide] was tested. Which Ki (Rho kinase 1 (ROCK-I)) did it give?
Answer: < 3 nM

Question: What about the Ki (Rho kinase 2 (ROCK-II)) of the same compound?
Answer: < 3 nM

Reference: patent US10501461B2, “Tyrosine amide derivatives as Rho-kinase inhibitors” (CHIESI FARMACEUTICI S.P.A., priority 2017, dated 2019)
